Counter-ions that a name gives are not always drawn.
Biological target: HSP-90 (Homo sapiens, UniProt P07900)
Assay: HSP-90 SPA (scintillation proximity assay) competition binding assay, tritiated Compound A radioligand (G2)
Settings: read-out: (G2): % inhibition

| SMILES | inhibition at 10 µM [%] |
| --- | --- |
| CCOC(=O)N1Cc2nc(N)nc(Oc3ccc(Cl)cc3Br)c2C1 [Example 23, ethyl 2-amino-4-(2-bromo-4-chlorophenoxy)-5,7-dihydro-6H-pyrrolo[34-d]pyrimidine-6-carboxylate] | 0 |
| CCOC(=O)N1Cc2nc(N)nc(Oc3cc(C)c(Cl)c(C)c3)c2C1 [Example 25, ethyl 2-amino-4-(4-chloro-35-dimethylphenoxy)-5,7-dihydro-6H-pyrrolo[34-d]pyrimidine-6-carboxylate hydrochloride] | 0 |
| CCOC(=O)N1Cc2nc(N)nc(Oc3ccc(Cl)cc3OC)c2C1 [Example 27, ethyl 2-amino-4-(4-chloro-2-methoxyphenoxy)-5,7-dihydro-6H-pyrrolo[3,4-d]pyrimidine-6-carboxylate] | 0 |
| CCOC(=O)N1Cc2nc(N)nc(-n3ccc4ccc(F)cc43)c2C1 [Example 46, ethyl 2-amino-4-(6-fluoro-1H-indol-1-yl)-5,7-dihydro-6H-pyrrolo[3,4-d]pyrimidine-6-carboxylate] | 0 |

Reference: US20100093696A1, “2-AMINO PYRIMIDINE COMPOUNDS” (Pfizer Inc., priority 2007, published 2010)
